Laboratory results from ChEMBL document CHEMBL5303304, “EUbOPEN Chemogenomics Library - IncuCyte” (2023).

Assays:
Format in all cases: toxicity, cell-based
[1] = tested on: Fibroblast; experiment: Incucyte cell viability with human fibroblast; settings: 10 µM, compound concentration 10 uM
[2] = tested on: HEK-293T; experiment: Incucyte cell viability with HEK293T; settings: human, 10 µM, compound concentration 10 uM
[3] = tested on: U2OS; experiment: Incucyte cell viability with U2OS; settings: human, 10 µM, compound concentration 10 uM
Also: unitless GR value; below 1 slowed growth and below 0 cell loss.

SMILES | Growth Rate ([1]; 6 h, replicate number 1) | Growth Rate ([1]; 6 h, replicate number 2) | Growth Rate ([1]; 12 h, replicate number 1) | Growth Rate ([1]; 12 h, replicate number 2) | Growth Rate ([1]; 18 h, replicate number 1) | Growth Rate ([1]; 18 h, replicate number 2) | Growth Rate ([1]; 24 h, replicate number 1) | Growth Rate ([1]; 24 h, replicate number 2) | Growth Rate ([2]; 6 h, replicate number 1) | Growth Rate ([2]; 12 h, replicate number 1) | Growth Rate ([2]; 12 h, replicate number 2) | Growth Rate ([2]; 18 h, replicate number 1) | Growth Rate ([2]; 18 h, replicate number 2) | Growth Rate ([2]; 24 h, replicate number 1) | Growth Rate ([2]; 24 h, replicate number 2) | Growth Rate ([3]; 0 h, replicate number 1) | Growth Rate ([3]; 6 h, replicate number 2) | Growth Rate ([3]; 12 h, replicate number 2) | Growth Rate ([3]; 18 h, replicate number 2) | Growth Rate ([3]; 24 h, replicate number 2) | also measured
c1ccc2c(c1)SCc1c-2[nH]c2ccccc12 | -0.99 | -1 | -0.96 | -0.98 | -0.86 | -0.94 | -0.75 | -0.84 | -0.95 | -0.76 | -0.7 | -0.53 | -0.49 | -0.37 | -0.38 | -0.33 | -0.66 | -0.52 | -0.49 | -0.42 | Growth Rate ([1]; 0 h, replicate number 1): -1; Growth Rate ([2]; 6 h, replicate number 2): -0.96; Growth Rate ([3]; 6 h, replicate number 1): -0.4; Growth Rate ([3]; 12 h, replicate number 1): -0.65; Growth Rate ([3]; 18 h, replicate number 1): -0.63; Growth Rate ([3]; 24 h, replicate number 1): -0.5
CCOC(=O)C1=C[C@]2(CC)CCCN3CCc4c(n1c1ccccc41)[C@@H]32 [VINPOCETINE] | 0.56 | -0.97 | -1 | 0.32 | – | 0.85 | – | – | 0.46 | 1 | 0.83 | 0.95 | 0.89 | 0.94 | – | -0.74 | 0.42 | 0.83 | 0.73 | 0.79 | Growth Rate ([2]; 0 h, replicate number 2): 0.71; Growth Rate ([3]; 0 h, replicate number 2): -0.97
CNC(=O)c1c[nH]c2ccc(Nc3nccc(-c4ccccn4)n3)cc12 | – | 0.18 | 0.8 | 0.41 | – | 0.6 | – | 0.75 | 0.28 | 0.33 | 0.1 | 0.33 | 0.14 | 0.39 | 0.17 | 0.13 | – | – | – | 0.94 | Growth Rate ([1]; 0 h, replicate number 1): -1; Growth Rate ([2]; 6 h, replicate number 2): 0.09; Growth Rate ([3]; 18 h, replicate number 1): 0.95
Cc1csc(-c2nnc(Nc3ccc(Oc4ncccc4-c4ccnc(N)n4)cc3)c3ccccc23)c1 [AMG-900] | – | – | – | 0.98 | – | – | 0.75 | – | – | – | – | – | – | – | – | – | 0.9 | 0.16 | 0.17 | 0.41 | Growth Rate ([1]; 0 h, replicate number 2): -0.73; Growth Rate ([2]; 0 h, replicate number 1): -0.13; Growth Rate ([2]; 0 h, replicate number 2): -0.21; Growth Rate ([3]; 6 h, replicate number 1): 0.79; Growth Rate ([3]; 12 h, replicate number 1): 0.57; Growth Rate ([3]; 18 h, replicate number 1): 0.27; Growth Rate ([3]; 24 h, replicate number 1): 0.33
CC(C)N1CCN(Cc2cnc(-c3cc(-c4cccc5[nH]ccc45)cc4[nH]ncc34)o2)CC1 [NEMIRALISIB] | -0.06 | – | 0.04 | 0.83 | 0.27 | 0.75 | 0.3 | 0.85 | -0.37 | -0.09 | -0.01 | 0.26 | 0.15 | 0.34 | 0.32 | -0.99 | 0.36 | 0.64 | 0.64 | 0.6 | Growth Rate ([2]; 6 h, replicate number 2): -0.48; Growth Rate ([3]; 0 h, replicate number 2): 0.94; Growth Rate ([3]; 12 h, replicate number 1): 0.83
COC[C@H](O)Cn1c(=O)cnn(-c2ccc(Cl)c(C(=O)NCC3(O)CCCCCC3)c2)c1=O [CE-224535] | – | – | -1 | – | -0.48 | – | – | – | 0.55 | – | – | – | – | – | – | -0.6 | – | – | – | – | Growth Rate ([1]; 0 h, replicate number 1): -0.26; Growth Rate ([1]; 0 h, replicate number 2): -1; Growth Rate ([2]; 0 h, replicate number 2): 0.38
COc1ccc(Br)cc1S(=O)(=O)NC(=O)/C=C/c1cc(Cl)ccc1Cc1ccc2ccccc2c1 | 0.77 | -0.77 | 0.99 | 0.22 | 0.99 | 0.56 | 0.91 | 0.39 | – | – | – | – | 0.99 | – | 0.94 | – | – | – | 0.86 | – | Growth Rate ([1]; 0 h, replicate number 2): -0.66; Growth Rate ([2]; 0 h, replicate number 1): 0.03; Growth Rate ([2]; 0 h, replicate number 2): 0.17
C=C1/C(=C\C=C2/CCC[C@]3(C)[C@@H]([C@H](C)CCCC(C)(C)O)CC[C@@H]23)C[C@@H](O)C[C@@H]1O [CALCITRIOL] | 0.62 | 0.1 | 0.49 | 0.64 | 0.64 | – | 0.96 | – | 0.8 | 0.61 | 0.7 | 0.44 | 0.67 | 0.53 | 0.55 | -0.07 | 0.45 | 0.63 | 0.67 | 0.67 | Growth Rate ([2]; 0 h, replicate number 2): -0.91; Growth Rate ([2]; 6 h, replicate number 2): 0.4; Growth Rate ([3]; 0 h, replicate number 2): 0.74; Growth Rate ([3]; 6 h, replicate number 1): 0.27; Growth Rate ([3]; 12 h, replicate number 1): -0.16; Growth Rate ([3]; 18 h, replicate number 1): 0.83; Growth Rate ([3]; 24 h, replicate number 1): 0.91
N#Cc1ccnc(Nc2cc(C3CCN(C4COC4)CC3)cc(N3CCC(F)(F)C3)n2)c1 | – | -1 | – | -0.47 | -0.85 | 0.21 | -0.29 | 0.43 | 0.58 | 0.85 | -0.54 | 0.46 | -0.37 | 0.44 | -0.26 | – | 0.29 | 0.38 | 0.46 | 0.44 | Growth Rate ([2]; 0 h, replicate number 1): -0.35; Growth Rate ([2]; 6 h, replicate number 2): -0.9; Growth Rate ([3]; 0 h, replicate number 2): -1; Growth Rate ([3]; 6 h, replicate number 1): 0.88; Growth Rate ([3]; 12 h, replicate number 1): 0.44; Growth Rate ([3]; 18 h, replicate number 1): 0.22; Growth Rate ([3]; 24 h, replicate number 1): 0.18
Cc1ccc2c(NS(=O)(=O)c3ccccc3Cl)cccc2c1Oc1ncccc1-c1ccnc(N[C@H]2CCCNC2)n1.Cl | 0.69 | – | 0.21 | 0.45 | 0.34 | 0.38 | 0.3 | 0.49 | 0.95 | 0.33 | 0.52 | 0.5 | 0.6 | 0.48 | 0.55 | 0.22 | 0.75 | 0.62 | 0.57 | 0.58 | Growth Rate ([1]; 0 h, replicate number 1): -1; Growth Rate ([3]; 0 h, replicate number 2): 0.32; Growth Rate ([3]; 6 h, replicate number 1): 0.4; Growth Rate ([3]; 12 h, replicate number 1): 0.68; Growth Rate ([3]; 18 h, replicate number 1): 0.69; Growth Rate ([3]; 24 h, replicate number 1): 0.55
